Measurements reported in PubChem BioAssay AID248 (DTP/NCI, 2004).
Toxic doses and inconclusive results are not listed. No stated cut-off is given here; in the data, active means T/C of 150% or more; inactive means T/C below 125%.

Tested on: L1210 leukemia ip in BDF1 mice, survival T/C
Assay: NCI In Vivo Anticancer Drug Screen. Data for tumor model L1210 Leukemia (intraperitoneal) in B6D2F1 (BDF1) mice
Conditions: endpoint: mean survival time, higher = longer survival
Summary of the method: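 Mice bearing the transplanted tumor received compound or vehicle. Survival of the treated group was divided by that of the vehicle-treated control group to give the ratio.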

[1] = dose: 100.0 mg/kg/injection, schedule: Q04DX002 (ip), vehicle: Klucel (hydroxypropylcellulose) (HPC)
[2] = dose: 200.0 mg/kg/injection, schedule: Q04DX002 (ip), vehicle: Klucel (hydroxypropylcellulose) (HPC)
[3] = dose: 50.0 mg/kg/injection, schedule: Q01DX009 (ip), vehicle: saline with Tween-80
[4] = dose: 100.0 mg/kg/injection, schedule: Q01DX009 (ip), vehicle: saline with Tween-80
[5] = dose: 200.0 mg/kg/injection, schedule: Q01DX009 (ip), vehicle: saline with Tween-80
[6] = dose: 100.0 mg/kg/injection, schedule: Q04DX003 (ip), vehicle: saline with Tween-80
[7] = dose: 200.0 mg/kg/injection, schedule: Q04DX003 (ip), vehicle: saline with Tween-80
[8] = dose: 400.0 mg/kg/injection, schedule: Q04DX003 (ip), vehicle: saline with Tween-80
[9] = dose: 100.0 mg/kg/injection, schedule: Q01DX001 (ip), vehicle: saline
[10] = dose: 200.0 mg/kg/injection, schedule: Q01DX001 (ip), vehicle: saline
[11] = dose: 400.0 mg/kg/injection, schedule: Q01DX001 (ip), vehicle: saline
[12] = dose: 100.0 mg/kg/injection, schedule: Q01DX001 (ip), vehicle: other
[13] = dose: 400.0 mg/kg/injection, schedule: Q01DX001 (ip), vehicle: other
[14] = dose: 100.0 mg/kg/injection, schedule: Q04DX003 (ip), vehicle: Klucel (hydroxypropylcellulose) (HPC)
[15] = dose: 200.0 mg/kg/injection, schedule: Q04DX003 (ip), vehicle: Klucel (hydroxypropylcellulose) (HPC)
[16] = dose: 400.0 mg/kg/injection, schedule: Q04DX003 (ip), vehicle: Klucel (hydroxypropylcellulose) (HPC)
[17] = dose: 50.0 mg/kg/injection, schedule: Q01DX009 (ip), vehicle: Klucel (hydroxypropylcellulose) (HPC)
[18] = dose: 100.0 mg/kg/injection, schedule: Q01DX009 (ip), vehicle: Klucel (hydroxypropylcellulose) (HPC)
[19] = dose: 200.0 mg/kg/injection, schedule: Q01DX009 (ip), vehicle: Klucel (hydroxypropylcellulose) (HPC)

Measured: T/C

CC(C)(C)[CH2][Sn]([CH2]C(C)(C)C)([CH2]C(C)(C)C)[c]1ccc(-c2ccccc2)cc1
inactive: [1] 111 % of control | [2] 92 % of control | dose: 400.0 mg/kg/injection, schedule: Q04DX002 (ip), vehicle: Klucel (hydroxypropylcellulose) (HPC) 92 % of control

CCCCN1C(=O)N(CCCC)C(=O)C(Br)(Br)C1=O
inactive: [3] 97 % of control | [4] 105 % of control | [5] 97 % of control

Clc1ccc(C#Cc2ccc(Cl)cc2)cc1
inactive: dose: 6.25 mg/kg/injection, schedule: Q01DX009 (ip), vehicle: saline with Tween-80 103 % of control | dose: 12.5 mg/kg/injection, schedule: Q01DX009 (ip), vehicle: saline with Tween-80 103 % of control

O=S(c1ccc(O)cc1)c1ccc(O)cc1
inactive: [6] 99 % of control | [7] 94 % of control | [8] 101 % of control

Clc1ccc(Cl)c(OCC2=NCCN2)c1
inactive: dose: 20.0 mg/kg/injection, schedule: Q04DX003 (ip), vehicle: Klucel (hydroxypropylcellulose) (HPC) 102 % of control | dose: 40.0 mg/kg/injection, schedule: Q04DX003 (ip), vehicle: Klucel (hydroxypropylcellulose) (HPC) 101 % of control

CCC(O)C[As](=O)(O)c1ccc(Cl)cc1 (stereo unspecified)
inactive: dose: 1.56 mg/kg/injection, schedule: Q01DX009 (ip), vehicle: saline with Tween-80 97 % of control

CCCCCCC(C)NCC(C)O (stereo unspecified)
inactive: dose: 75.0 mg/kg/injection, schedule: Q01DX001 (ip), vehicle: acid diluted with saline 96 % of control

C[S+](C)c1ccccc1C(C)(C)CC(=O)O
inactive: [9] 103 % of control | [10] 98 % of control | [11] 110 % of control

COc1cc2c(c(OC)c1OC)c(=O)c1ccccc1n2C
inactive: dose: 50.0 mg/kg/injection, schedule: Q01DX Z (ip), vehicle: carboxymethylcellulose (CMC) 97 % of control | dose: 100.0 mg/kg/injection, schedule: Q01DX Z (ip), vehicle: carboxymethylcellulose (CMC) 103 % of control | dose: 200.0 mg/kg/injection, schedule: Q01DX Z (ip), vehicle: carboxymethylcellulose (CMC) 101 % of control

S=P(S)(Oc1ccc(Cl)cc1Cl)Oc1ccc(Cl)cc1Cl.[Cd]
inactive: dose: 25.0 mg/kg/injection, schedule: Q04DX002 (ip), vehicle: saline with Tween-80 89 % of control | dose: 50.0 mg/kg/injection, schedule: Q04DX002 (ip), vehicle: saline with Tween-80 92 % of control | dose: 100.0 mg/kg/injection, schedule: Q04DX002 (ip), vehicle: saline with Tween-80 123 % of control

N#Cc1ccc(/C=N\NC(=O)CCCC(=O)N/N=C/c2ccc(C#N)cc2)cc1
inactive: dose: 50.0 mg/kg/injection, schedule: Q01DX001 (ip), vehicle: other 91 % of control | [12] 91 % of control | [13] 91 % of control

O=C1CC(=P(c2ccccc2)(c2ccccc2)c2ccccc2)C(=O)O1
inactive: [3] 103 % of control | [4] 103 % of control | [14] 93 % of control | [5] 100 % of control | [15] 95 % of control | [16] 93 % of control

O=C(/C(=C/c1ccccc1)CN1CCOCC1)c1ccccc1
inactive: [14] 96 % of control

Cc1ccc(S(=O)(=O)Nc2ccc(C(=O)O)c(Cl)c2)cc1
inactive: [6] 108 % of control | [7] 92 % of control | [8] 104 % of control

C(=Nc1ccccc1)c1ccc2c(c1)COO2
inactive: [14] 101 % of control | [15] 101 % of control | [16] 101 % of control

CSc1nc(Cl)c(Cl)c(SC)n1 (tested in a mixture with another compound)
inactive: [17] 87 % of control | [18] 87 % of control

O=C(O)CCC(=O)c1ccc(Br)cc1
inactive: [17] 100 % of control | [18] 95 % of control | [19] 101 % of control

Nc1ccnc(Cl)c1N
inactive: [3] 111 % of control | dose: 50.0 mg/kg/injection, schedule: Q04DX003 (ip), vehicle: saline with Tween-80 97 % of control | [4] 111 % of control | [6] 101 % of control | [5] 109 % of control | [7] 95 % of control

[Cu+2].[NH-]C(CC(=O)O)C(=O)O.[NH-]C(CC(=O)O)C(=O)O (stereo unspecified)
inactive: dose: 5.0 mg/kg/injection, schedule: Q01DX001 (ip), vehicle: saline 96 % of control | dose: 10.0 mg/kg/injection, schedule: Q01DX001 (ip), vehicle: saline 96 % of control | dose: 20.0 mg/kg/injection, schedule: Q01DX001 (ip), vehicle: saline 91 % of control | dose: 40.0 mg/kg/injection, schedule: Q01DX001 (ip), vehicle: saline 96 % of control

S=C1NC(c2ccc(Cl)cc2)N2C(=S)NC(c3ccc(Cl)cc3)N12 (stereo unspecified)
inactive: dose: 100.0 mg/kg/injection, schedule: Q01DX009 (ip), vehicle: gum acacia 98 % of control | dose: 100.0 mg/kg/injection, schedule: Q04DX003 (ip), vehicle: gum acacia 104 % of control | dose: 200.0 mg/kg/injection, schedule: Q01DX009 (ip), vehicle: gum acacia 93 % of control | dose: 200.0 mg/kg/injection, schedule: Q04DX003 (ip), vehicle: gum acacia 101 % of control | dose: 400.0 mg/kg/injection, schedule: Q04DX003 (ip), vehicle: gum acacia 98 % of control

O=CC(CCN1CCCCC1)(CCN1CCCCC1)c1cccc2ccccc12
inactive: dose: 25.0 mg/kg/injection, schedule: Q04DX002 (ip), vehicle: Klucel (hydroxypropylcellulose) (HPC) 107 % of control | dose: 50.0 mg/kg/injection, schedule: Q04DX002 (ip), vehicle: Klucel (hydroxypropylcellulose) (HPC) 100 % of control | [18] 105 % of control | [1] 98 % of control

COc1ccccc1/C=C/C(=O)N1CCC2(CC1)C(=O)N(C)CN2c1ccccc1
inactive: dose: 75.0 mg/kg/injection, schedule: Q04DX003 (ip), vehicle: Klucel (hydroxypropylcellulose) (HPC) 96 % of control | dose: 150.0 mg/kg/injection, schedule: Q04DX003 (ip), vehicle: Klucel (hydroxypropylcellulose) (HPC) 86 % of control | dose: 300.0 mg/kg/injection, schedule: Q04DX003 (ip), vehicle: Klucel (hydroxypropylcellulose) (HPC) 91 % of control

OCC1OC(n2c3ccccc3c3ccccc32)C(O)C(O)C1O (stereo unspecified)
inactive: dose: 60.0 mg/kg/injection, schedule: Q04DX002 (ip), vehicle: DMSO 108 % of control | dose: 120.0 mg/kg/injection, schedule: Q04DX002 (ip), vehicle: DMSO 102 % of control

NC1=NN(c2c(Cl)cc(Cl)cc2Cl)C(=O)C1
inactive: [9] 96 % of control | [10] 94 % of control | [11] 100 % of control

CCCCOP(=O)(OCCCC)OC(C#N)CCC (stereo unspecified)
inactive: [1] 107 % of control | [2] 98 % of control

CCOC(=O)C1C(C#N)C2OC1C(Cl)C2Cl (stereo unspecified)
inactive: [18] 100 % of control | [19] 102 % of control | dose: 400.0 mg/kg/injection, schedule: Q01DX009 (ip), vehicle: Klucel (hydroxypropylcellulose) (HPC) 94 % of control

COC(C(=O)O)c1cccs1 (stereo unspecified)
inactive: [3] 91 % of control | [4] 86 % of control | [5] 100 % of control

C=C1CC2(CCCC3(CC(=C)C(=O)O3)C2(C)C)OC1=O (stereo unspecified)
inactive: [9] 102 % of control | [10] 119 % of control

O=C(OCCC/C(=C\c1cc2ccccc2c2ccccc12)[N+](=O)[O-])c1ccccc1
inactive: [12] 87 % of control | dose: 200.0 mg/kg/injection, schedule: Q01DX001 (ip), vehicle: other 92 % of control | [13] 91 % of control

CC(=O)Oc1cccc(/C=C/C(=O)O)c1
inactive: [4] 91 % of control | [6] 98 % of control | [5] 91 % of control | [7] 102 % of control | dose: 400.0 mg/kg/injection, schedule: Q01DX009 (ip), vehicle: saline with Tween-80 90 % of control | [8] 91 % of control

ClCCCCOCC1CCCO1 (stereo unspecified)
inactive: [4] 100 % of control | [5] 107 % of control

COc1cc(OC)c(NC(=O)NCCCl)cc1Cl
inactive: [14] 104 % of control | [15] 106 % of control | [16] 97 % of control
